Consider 20 compounds from US20110212997A1, “PIPERIDINE-4-ACETAMIDE DERIVATIVES AND THEIR USE AS MONOAMINE NEUROTRANSMITTER RE-UPTAKE INHIBITORS” (NEUROSEARCH A/S, priority 2008, published 2011).

Structures can show the parent of a compound that is named as a salt.

Data set [1] concerns the target T1, serotonine (5-HT) reuptake in synaptosomes (Rattus norvegicus, UniProt P31652).
T1 construct: serotonine (5-HT) in synaptosomes as described in WO 97/16451; from tissue
Nature of the data set: Inhibition of 5-HT reuptake in synaptosomes. In kind it is biochemical. The following applies: 3H-5-HT, read-out: 5-HT-uptake IC50. How it is done:
(§1) Compounds were tested for their ability to inhibit the reuptake of the monoamine neurotransmitters dopamine (DA) noradrenaline (NA) and serotonine (5-HT) in synaptosomes as described in WO 97/16451 (NeuroSearch NS).
(§2) The test values are given as IC50 (the concentration (μM) of the test substance which inhibits the specific binding of ^3H-DA, ^3H-NA, or ^3H-5-HT by 50%).

The target of data set [2] is T2, dopamine (DA) reuptake in synaptosomes (Rattus norvegicus, UniProt P23977).
T2 construct: in synaptosomes as described in WO 97/16451; from tissue
The data set can be described thus: Inhibition of DA reuptake in synaptosomes. In kind it is biochemical. The note with it: synaptosomes, 3H-DA; read-out: DA-uptake IC50. Here is the method: as §1, §2

For data set [3], the target named is T3, noradrenaline (NA) reuptake in synaptosomes (Rattus norvegicus, UniProt Q63380).
T3 construct: in synaptosomes as described in WO 97/16451; from tissue
Nature of the data set: Inhibition of NA reuptake in synaptosomes. In kind it is biochemical. The following applies: synaptosomes, 3H-NA; read-out: NA-uptake IC50. How it is done:
as §1, §2

T1 sequence (P31652 whole entry): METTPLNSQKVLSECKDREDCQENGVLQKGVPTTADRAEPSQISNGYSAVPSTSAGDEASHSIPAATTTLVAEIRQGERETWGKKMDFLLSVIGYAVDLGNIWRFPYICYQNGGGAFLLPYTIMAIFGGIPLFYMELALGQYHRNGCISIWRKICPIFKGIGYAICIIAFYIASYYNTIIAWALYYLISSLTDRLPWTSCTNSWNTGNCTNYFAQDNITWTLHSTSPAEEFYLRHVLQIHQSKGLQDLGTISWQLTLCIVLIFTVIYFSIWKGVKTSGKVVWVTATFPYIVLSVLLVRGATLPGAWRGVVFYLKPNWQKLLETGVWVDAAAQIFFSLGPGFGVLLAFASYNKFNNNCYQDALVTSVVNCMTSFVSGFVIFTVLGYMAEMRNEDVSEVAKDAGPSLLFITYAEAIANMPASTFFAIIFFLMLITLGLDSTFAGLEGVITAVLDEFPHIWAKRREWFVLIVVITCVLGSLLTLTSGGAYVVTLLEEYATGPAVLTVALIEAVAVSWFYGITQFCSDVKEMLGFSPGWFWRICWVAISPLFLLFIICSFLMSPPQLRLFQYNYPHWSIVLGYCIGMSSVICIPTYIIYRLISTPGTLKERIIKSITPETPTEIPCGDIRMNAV
T2 sequence (P23977 whole entry): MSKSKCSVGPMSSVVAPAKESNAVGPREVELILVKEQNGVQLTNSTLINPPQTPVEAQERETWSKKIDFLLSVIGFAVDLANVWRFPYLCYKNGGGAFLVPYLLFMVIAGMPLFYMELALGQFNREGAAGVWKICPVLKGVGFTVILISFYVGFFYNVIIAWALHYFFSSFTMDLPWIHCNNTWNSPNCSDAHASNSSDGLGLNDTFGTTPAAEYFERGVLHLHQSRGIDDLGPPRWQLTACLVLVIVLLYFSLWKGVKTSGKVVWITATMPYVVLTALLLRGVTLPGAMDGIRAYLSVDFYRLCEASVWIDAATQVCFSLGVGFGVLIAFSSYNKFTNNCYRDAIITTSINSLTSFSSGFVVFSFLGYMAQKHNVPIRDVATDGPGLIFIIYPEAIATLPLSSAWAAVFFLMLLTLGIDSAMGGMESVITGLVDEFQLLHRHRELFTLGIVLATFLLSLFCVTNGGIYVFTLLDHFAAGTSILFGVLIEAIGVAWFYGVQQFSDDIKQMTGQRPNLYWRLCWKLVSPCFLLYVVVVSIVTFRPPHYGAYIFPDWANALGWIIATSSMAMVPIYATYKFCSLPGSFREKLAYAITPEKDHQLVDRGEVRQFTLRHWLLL
T3 sequence (Q63380 1-617): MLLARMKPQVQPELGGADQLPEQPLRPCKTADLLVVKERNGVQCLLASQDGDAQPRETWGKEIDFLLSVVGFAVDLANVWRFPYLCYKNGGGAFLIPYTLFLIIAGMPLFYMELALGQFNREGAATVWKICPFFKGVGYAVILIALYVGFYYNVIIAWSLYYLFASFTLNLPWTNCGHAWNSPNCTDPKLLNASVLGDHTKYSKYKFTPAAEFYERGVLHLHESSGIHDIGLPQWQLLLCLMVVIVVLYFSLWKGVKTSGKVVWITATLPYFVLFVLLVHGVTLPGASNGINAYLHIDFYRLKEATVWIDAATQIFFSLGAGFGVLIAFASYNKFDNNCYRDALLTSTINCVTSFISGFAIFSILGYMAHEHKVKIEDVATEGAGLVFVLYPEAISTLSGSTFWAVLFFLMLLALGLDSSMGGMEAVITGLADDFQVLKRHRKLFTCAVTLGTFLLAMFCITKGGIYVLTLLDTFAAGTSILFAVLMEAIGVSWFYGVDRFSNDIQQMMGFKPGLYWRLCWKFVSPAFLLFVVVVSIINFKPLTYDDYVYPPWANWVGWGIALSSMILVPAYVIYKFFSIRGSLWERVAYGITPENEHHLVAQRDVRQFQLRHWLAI

In general, melting point refers to the temperature of the solid-liquid transition. Compound `CCN(C(=O)CC1CCNCC1)c1cc(Cl)ccc1Cl` (as salt: fumaric acid salt) [Compound C7, N-(2,5-Dichloro-phenyl)-N-ethyl-2-piperidin-4-yl-acetamide] displayed a melting point of 190 to 192 °C.

`CCN(C(=O)CC1CCNCC1)c1c(Cl)cccc1Cl` (as salt: fumaric acid salt) [Compound C8, N-(2,6-Dichloro-phenyl)-N-ethyl-2-piperidin-4-yl-acetamide] yielded a melting point of 167 to 169 °C.

For the compound `CCN(C(=O)CC1CCNCC1)c1cc(Cl)cc(Cl)c1` (as salt: fumaric acid salt) [Compound C9, N-(3,5-Dichloro-phenyl)-N-ethyl-2-piperidin-4-yl-acetamide], the melting point was in the range of 151 to 153 °C.

In the case of `CCN(C(=O)CC1CCNCC1)c1ccc(Cl)c(Cl)c1Cl` (as salt: fumaric acid salt) [Compound C10, N-Ethyl-2-piperidin-4-yl-N-(2,3,4-trichloro-phenyl)-acetamide], the melting point was in the range of 62 to 64 °C.

`CCN(C(=O)CC1CCNCC1)c1ccc(Br)c(Br)c1` (as salt: fumaric acid salt) [Compound C11, N-(3,4-Dibromo-phenyl)-N-ethyl-2-piperidin-4-yl-acetamide] had a melting point of 58 to 60 °C.

The compound `CCCN(C(=O)CC1CCNCC1)c1ccc(Cl)c(Cl)c1` (as salt: fumaric acid salt) [Compound C12, N-(3,4-Dichloro-phenyl)-2-piperidin-4-yl-N-propyl-acetamide] had a melting point of 55 to 58 °C.

`CCN(C(=O)CC1CCNCC1)c1ccc(Cl)c(Br)c1` (as salt: fumaric acid salt) [Compound C13, N-(3-Bromo-4-chloro-phenyl)-N-ethyl-2-piperidin-4-yl-acetamide]: the melting point lay within 141 to 143 °C.

With `CCN(C(=O)CC1CCN(C)CC1)c1cccc2ccccc12` (as salt: fumaric acid salt) [Compound D3, N-Ethyl-2-(1-methyl-piperidin-4-yl)-N-naphthalen-1-yl-acetamide], the melting point fell in the range of 63 to 66 °C.

Regarding `CCN(C(=O)CC1CCNCC1)c1ccc(Br)c(Cl)c1` (as salt: fumaric acid salt) [Compound D4, N-(4-Bromo-3-chloro-phenyl)-N-ethyl-2-piperidin-4-yl-acetamide], the melting point was 159 to 161 °C.

For the compound `CCN(C(=O)CC1CCNCC1)c1ccc(Cl)cc1Cl` (as salt: fumaric acid salt) [Compound D5, N-(2,4-Dichloro-phenyl)-N-ethyl-2-piperidin-4-yl-acetamide], the melting point was 112 to 114 °C.

Turning to `CN1CCC(CC(=O)Nc2ccc(Cl)c(Cl)c2)CC1` (as salt: fumaric acid salt) [Compound D6, N-(3,4-Dichloro-phenyl)-2-(1-methyl-piperidin-4-yl)-acetamide], the melting point lay in the range of 180 to 183 °C.

With `CCN(C(=O)CC1CCN(C)CC1)c1cccc(Cl)c1Cl` (as salt: fumaric acid salt) [Compound D8, N-(2,3-Dichloro-phenyl)-N-ethyl-2-(1-methyl-piperidin-4-yl)-acetamide], the melting point fell in the range of 51 to 53 °C.

In turn, `CN1CCC(CC(=O)N(C)c2ccc(Cl)c(Cl)c2)CC1` (as salt: fumaric acid salt) [Compound D12, N-(3,4-Dichloro-phenyl)-N-methyl-2-(1-methyl-piperidin-4-yl)-acetamide] had a melting point of 57 to 59 °C.

Compound `CCN(C(=O)CC1CCN(C)CC1)c1ccc(Cl)cc1Cl` (as salt: fumaric acid salt) [Compound D14, N-(2,4-Dichloro-phenyl)-N-ethyl-2-(1-methyl-piperidin-4-yl)-acetamide] returned a melting point of 175 to 177 °C.

Regarding `CCN(C(=O)CC1CCN(C)CC1)c1c(Cl)cccc1Cl` (as salt: fumaric acid salt) [Compound D16, N-(2,6-Dichloro-phenyl)-N-ethyl-2-(1-methyl-piperidin-4-yl)-acetamide], the melting point fell in the range of 167 to 169 °C.

With `CCN(C(=O)CC1CCN(C)CC1)c1ccc(Cl)c(Cl)c1Cl` (as salt: fumaric acid salt) [Compound D18, N-Ethyl-2-(1-methyl-piperidin-4-yl)-N-(2,3,4-trichloro-phenyl)-acetamide], the melting point lay in the range of 181 to 183 °C.

`CCCN(C(=O)CC1CCN(C)CC1)c1ccc(Cl)c(Cl)c1` (as salt: fumaric acid salt) [Compound D20, N-(3,4-Dichloro-phenyl)-2-(1-methyl-piperidin-4-yl)-N-propyl-acetamide] returned a melting point of 144 to 146 °C.

Consider `CCN(C(=O)CC1CCN(C)CC1)c1ccc(Cl)c(Cl)c1` (as salt: hydrochloric acid salt) [Compound D1, N-(3,4-Dichloro-phenyl)-N-ethyl-2-(1-methyl-piperidin-4-yl)-acetamide], for which the melting point was in the range of 153 to 155 °C.

In general, IC50 refers to the concentration that gives 50% inhibition. On to `CCCN(C(=O)CC1CCN(C)CC1)c1ccc(Cl)c(Cl)c1` [Compound D20, N-(3,4-Dichloro-phenyl)-2-(1-methyl-piperidin-4-yl)-N-propyl-acetamide], for which the 50% inhibitory concentration (IC50) in data set [1] was found to be 700 nM; in data set [2], 12 nM; in data set [3], 3.4 nM.

Consider `CCN(C(=O)CC1CCN(C)CC1)c1ccc(Cl)c(Br)c1` [Compound D21, N-(3-Bromo-4-chloro-phenyl)-N-ethyl-2-(1-methyl-piperidin-4-yl)-acetamide], for which the IC50 in data set [1] came out at 1200 nM; in data set [2] it was 12 nM; in data set [3], 2.3 nM.
